Test results: US12011619B2, “Low intensity focused ultrasound for treating cancer and metastasis” (priority 2015, dated 2024)

Experiments:
[1] = tested on: RM1 tumor (murine prostate cancer cell line); experiment: RM1 tumor growth in C57Bl/6 mice; assay type: in vivo, mouse; settings: for tumor volume: untreated tumor 1879±98.65 mm^3
Protocol: (§1) This protocol yielded an approximate in situ spatial-peak temporal-average acoustic intensity of 270 W/cm^2, resulting in estimated average intra-tumoral temperature elevation of 3.2° C. Post-treatment, there were no signs of normal tissue toxicity such as alopecia, thermal damage, or skin wounds. […] Control mice were injected with equal volume of the vehicle DMSO, which was used to solubilize 17AAG.
(§2) C57Bl/6 and BalbC nu/nu mice were injected subcutaneously with 1×10^5 RM-1 (murine prostate cancer cell line) and 1×10^6 PC3 (human prostate cancer cell line) cells on the flank, respectively. Approximately 10 days later, the tumor became palpable (3-5 mm in diameter), whereupon LOFU treatment was initiated. […] Palpable tumors were treated with LOFU every 3-4 days for five fractions administered over two weeks. Animals received 17AAG three times a week during this time. Tumor volume measurements were performed twice weekly using Vernier calipers along with simultaneous physical assessment of signs of systemic toxicity (malaise and diarrhea).

[2] = Toxicity / survival of 17AAG dosing in mice (Kaplan Meier, signs of toxicity); assay type: in vivo
Protocol: as §1
Thus, these dose levels were selected for the current study. The goal was to combine two therapies that are nontoxic, albeit subtherapeutic, and examine whether the combination can be therapeutic. […] To detect the level of ER stress, the expression levels of ER chaperones, ERp44, ERp57, and ERp72 were quantitated among different treatment groups. ERp44 is responsible for oxidative protein folding. ERp57 is an ER resident thiol disulfide oxidoreductase while Erp72 is a disulfide isomerase. All these proteins participate in the protein folding machinery of the ER.
as §2
Mice survival/mortality in different treatment groups was analyzed by Kaplan-Meier as a function of radiation dose using Sigma-Plot and GraphPad Prism (version 4.0 for OS X, San Diego, CA, USA) software.

CHOP transcript = experiment: Real Time-PCR analysis of CHOP mRNA in tumors; assay type: in vivo, mouse; settings: RM1 tumors
Excerpt: Although phosphorylated eIF2α decreases the translation of most cellular proteins, including pro-survival and anti-apoptotic proteins, it increases the translation of a transcription factor, ATF4 that is responsible for inducing the transcription of pro-apoptotic genes, such as, CCAAT/enhancer-binding protein homologous protein (CHOP), thereby preparing the cell for programmed cell death in case the misfolded proteins are not repaired and ER stress persists.
Real Time PCR analysis of UPR target genes 24 hr after LOFU treatment the RM1 tumor cells were lysed using RLT buffer mixed with 1% betamercaptoethanol from RNeasy Mini Kit (Qiagen, Valencia, CA, USA).
Qiagen's protocol for the RNeasy Mini Kit with on-column DNA digestion was used to isolate RNA from the tumor lysates. The RNA samples were stored at −80° C., prior to further use. Isolated RNA was subjected to cDNA synthesis using the SuperScript™ First-Strand Synthesis System (Invitrogen, Grand Island, NY, USA). The splicing of XBP1 RNA was detected using the following primer pair 5′-[…]-3′ (SEQ ID NO:19) and 5′-[…]-3′ (SEQ ID NO:20) (Fisher Scientific, Pittsburgh, PA, USA). […]
Primers used for real time PCR included GRP78 5′[…]3′ (SEQ ID NO:21) and 5′[…]3′ (SEQ ID NO:22); EDEM 5′ […] […] Data was analyzed by web based PCR array data analysis software from SA Biosciences.

For `C=CCNC1=C2C[C@@H](C)C[C@H](OC)[C@H](O)[C@@H](C)/C=C(\C)[C@H](OC(N)=O)[C@@H](OC)/C=C\C=C(/C)C(=O)NC(=CC1=O)C2=O` [17AAG, 17-N-allylamino-17-demethoxygeldanamycinan], the tumor volume ([1]; 17AAG 50 mg/kg b.w. i.p. three times a week, C57Bl/6 mice) was 964 mm^3, the tumor volume ([1]; 17AAG 75 mg/kg b.w. i.p. three times a week, C57Bl/6 mice) was 485±24.25 mm^3 and the “interval within which all the animals achieved tumor size 2000 mm^3” value ([1]; RM1 tumors, 17AAG 25 mg/kg alone) was 26 to 30 days. The “average estimated tumor growth slower compared to control group” value ([1]; RM1 tumors, 17AAG 25 mg/kg, C57Bl/6 mice) was 9%, the “death of mice (Kaplan Meier survival analysis)” value ([2]; 75 mg/kg of body weight, after 21 days of treatment, C57Bl/6 mice) was 50% and the “low dose found to be nontoxic” value ([2]; Balb/c nude mice) was 14 mg/kg. For the same molecule, the “low dose found to be nontoxic” value ([2]; C57Bl/6 mice) was 25 mg/kg, the “normal tissue toxic effect” value ([2]; low dose 17AAG 25 mg/kg body weight, C57Bl/6 mice) was “did not show any normal tissue toxic effect” and the “CHOP transcript levels, induction compared to untreated controls” value (CHOP transcript) was 14.8±2 fold.
